Laboratory results from patent publication US20240025919A1, “AZA-TETRACYCLIC OXAZEPINE COMPOUNDS AND USES THEREOF” (Genentech, Inc., priority 2022, published 2024).

What was measured:
KRAS G12D = KRAS G12D (Homo sapiens (Human), UniProt P01116, G12D); test: KRAS G12D LoEnz Biochemical Assay, BODIPY-GDP Exchange TR-FRET (SOS1-mediated nucleotide exchange); conditions: read-out: KRas (G12D) GDP HTRF IC50
KRAS WT = KRAS WT (Homo sapiens (Human), UniProt P01116); test: KRAS WT Biochemical Assay, BODIPY-GDP Exchange TR-FRET (Example 502; 0.06 nM KRAS WT, 15 nM GDP, 300 nM SOS1, 120-minute incubation); conditions: read-out: KRas HTRF IC50
How it was run: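 Biotin-tagged recombinant KRAS WT (0.06 nM) preloaded with 15 nM GDP and Tb-streptavidin, 10 min RT, then exchange started with 300 nM SOS1 plus 300 nM BODIPY-GDP in HEPES pH 7.5 buffer with MgCl2. TR-FRET 520/490 ratio read after 120 min; normalized to DMSO and full-inhibition control; IC50 from 4-parameter fit.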

KRAS WT, sequence (P01116-2 other isoform, or with tags, fused parts or gaps): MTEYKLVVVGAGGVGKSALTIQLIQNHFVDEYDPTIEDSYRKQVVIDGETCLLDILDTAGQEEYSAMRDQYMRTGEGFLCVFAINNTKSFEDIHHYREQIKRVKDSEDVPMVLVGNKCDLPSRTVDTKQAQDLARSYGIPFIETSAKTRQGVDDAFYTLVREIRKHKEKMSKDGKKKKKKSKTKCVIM
KRAS G12D, sequence (P01116-2 other isoform, or with tags, fused parts or gaps G12D): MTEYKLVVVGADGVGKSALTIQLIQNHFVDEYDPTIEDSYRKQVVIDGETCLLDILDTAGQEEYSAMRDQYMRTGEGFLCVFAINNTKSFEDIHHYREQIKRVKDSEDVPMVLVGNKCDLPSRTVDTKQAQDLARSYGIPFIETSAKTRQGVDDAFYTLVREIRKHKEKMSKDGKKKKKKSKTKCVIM

Row | SMILES | IC50 (KRAS G12D) | IC50 (KRAS WT)
1 | Cc1nc(N)cc(-c2nc3c4c(nc(OC[C@@H]5CC[C@H]6COCCN65)nc4c2F)N2C[C@H]4CC[C@H](N4)[C@H]2[C@H](C)O3)c1C(F)(F)F [Compound 112, 4-((5S,5aS,6S,9R)-1-fluoro-12-(((6S,8aS)-hexahydro-1H-pyrrolo[2,1-c][1,4]oxazin-6-yl)methoxy)-5-methyl-5a,6,7,8,9,10-hexahydro-5H-4-oxa-3,10a,11,13,14-pentaaza-6,9-methanonaphtho[1,8-ab]heptalen-2-yl)-6-methyl-5-(trifluoromethyl)pyridin-2-amine] | 0.48 nM | 62.8 nM
2 | Cc1c(F)c(N)cc(-c2nc3c4c(nc(OC[C@@H]5CC[C@H]6COCCN65)nc4c2F)N2C[C@H]4CC[C@H](N4)[C@H]2[C@H](C)O3)c1CC(F)(F)F [Compound 113, 2-fluoro-5-((5S,5aS,6S,9R)-1-fluoro-12-(((6S,8aS)-hexahydro-1H-pyrrolo[2,1-c][1,4]oxazin-6-yl)methoxy)-5-methyl-5a,6,7,8,9,10-hexahydro-5H-4-oxa-3,10a,11,13,14-pentaaza-6,9-methanonaphtho[1,8-ab]heptalen-2-yl)-3-methyl-4-(2,2,2-trifluoroethyl)aniline] | 0.31 nM | 65.6 nM
3 | C[C@@H]1Oc2nc(-c3cccc4ccc(N)nc34)c(F)c3nc(OC[C@@]45CCCN4C[C@H](F)C5)nc(c23)N2C[C@H]3CC[C@H](N3)[C@@H]12 [Compound 114, 8-((5S,5aS,6S,9R)-1-Fluoro-12-(((2R,7aS)-2-fluorotetrahydro-1H-pyrrolizin-7a(5H)-yl)methoxy)-5-methyl-5a,6,7,8,9,10-hexahydro-5H-4-oxa-3,10a,11,13,14-pentaaza-6,9-methanonaphtho[1,8-ab]heptalen-2-yl)quinolin-2-amine] | 135 nM | 36700 nM
4 | C[C@@H]1Oc2nc(-c3cc(N)cc(C(F)(F)F)c3C(F)(F)F)c(F)c3nc(OC[C@@]45CCCN4C[C@H](F)C5)nc(c23)N2C[C@H]3CC[C@H](N3)[C@@H]12 [Compound 115, 3-((5S,5aS,6S,9R)-1-fluoro-12-(((2R,7aS)-2-fluorotetrahydro-1H-pyrrolizin-7a(5H)-yl)methoxy)-5-methyl-5a,6,7,8,9,10-hexahydro-5H-4-oxa-3,10a,11,13,14-pentaaza-6,9-methanonaphtho[1,8-ab]heptalen-2-yl)-4,5-bis(trifluoromethyl)aniline] | 0.39 nM | 34.1 nM
5 | C[C@@H]1Oc2nc(-c3cccc4sc(N)nc34)c(F)c3nc(OC[C@@]45CCCN4C[C@H](F)C5)nc(c23)N2C[C@H]3CC[C@H](N3)[C@@H]12 [Compound 116, 4-((5S,5aS,6S,9R)-1-fluoro-12-(((2R,7aS)-2-fluorotetrahydro-1H-pyrrolizin-7a(5H)-yl)methoxy)-5-methyl-5a,6,7,8,9,10-hexahydro-5H-4-oxa-3,10a,11,13,14-pentaaza-6,9-methanonaphtho[1,8-ab]heptalen-2-yl)benzo[d]thiazol-2-amine] | 2.41 nM | 213 nM
6 | C[C@@H]1Oc2nc(-c3cc(N)ccc3C(C)(C)C)c(F)c3nc(OC[C@@]45CCCN4C[C@H](F)C5)nc(c23)N2C[C@H]3CC[C@H](N3)[C@@H]12 [Compound 117, 4-(tert-butyl)-3-((5S,5aS,6S,9R)-1-fluoro-12-(((2R,7aS)-2-fluorotetrahydro-1H-pyrrolizin-7a(5H)-yl)methoxy)-5-methyl-5a,6,7,8,9,10-hexahydro-5H-4-oxa-3,10a,11,13,14-pentaaza-6,9-methanonaphtho[1,8-ab]heptalen-2-yl)aniline] | 4.84 nM | 638 nM
7 | Cc1c(F)c(N)cc(-c2nc3c4c(nc(OCC5(CN6CCOCC6)CC5)nc4c2F)N2C[C@H]4CC[C@H](N4)[C@H]2[C@H](C)O3)c1C(F)(F)F [Compound 118, 2-Fluoro-5-((5S,5aS,6S,9R)-1-fluoro-5-methyl-12-((1-(morpholinomethyl)cyclopropyl)methoxy)-5a,6,7,8,9,10-hexahydro-5H-4-oxa-3,10a,11,13,14-pentaaza-6,9-methanonaphtho[1,8-ab]heptalen-2-yl)-3-methyl-4-(trifluoromethyl)aniline] | 0.09 nM | 1.76 nM
8 | Cc1c(F)c(N)cc(-c2nc3c4c(nc(OC[C@@H]5CCC6C=C(F)CCN65)nc4c2F)N2C[C@H]4CC[C@H](N4)[C@H]2[C@H](C)O3)c1C(F)(F)F (stereo partly drawn) [Compound 120, 2-fluoro-5-((5S,5aS,6S,9R)-1-fluoro-12-(((3S)-7-fluoro-1,2,3,5,6,8a-hexahydroindolizin-3-yl)methoxy)-5-methyl-5a,6,7,8,9,10-hexahydro-5H-4-oxa-3,10a,11,13,14-pentaaza-6,9-methanonaphtho[1,8-ab]heptalen-2-yl)-3-methyl-4-(trifluoromethyl)aniline] | 0.24 nM | 44.5 nM
9 | Cc1c(F)c(N)cc(-c2nc3c4c(nc(OC[C@@]56CCC(C)N5C[C@H](F)C6)nc4c2F)N2C[C@H]4CC[C@H](N4)[C@H]2[C@H](C)O3)c1C(F)(F)F (stereo partly drawn) [Compound 122, 2-fluoro-5-((5S,5aS,6S,9R)-1-fluoro-12-(((2R,7aS)-2-fluoro-5-methyltetrahydro-1H-pyrrolizin-7a(5H)-yl)methoxy)-5-methyl-5a,6,7,8,9,10-hexahydro-5H-4-oxa-3,10a,11,13,14-pentaaza-6,9-methanonaphtho[1,8-ab]heptalen-2-yl)-3-methyl-4-(trifluoromethyl)aniline] | 0.11 nM | 3.72 nM
10 | Cc1c(F)c(N)cc(-c2nc3c4c(nc(OCC5CN(CC(F)F)C5)nc4c2F)N2C[C@H]4CC[C@H](N4)[C@H]2[C@H](C)O3)c1C(F)(F)F [Compound 128, 5-((5S,5aS,6S,9R)-12-((1-(2,2-Difluoroethyl)azetidin-3-yl)methoxy)-1-fluoro-5-methyl-5a,6,7,8,9,10-hexahydro-5H-4-oxa-3,10a,11,13,14-pentaaza-6,9-methanonaphtho[1,8-ab]heptalen-2-yl)-2-fluoro-3-methyl-4-(trifluoromethyl)aniline] | 0.48 nM | 156 nM
11 | Cc1c(F)c(N)cc(-c2nc3c4c(nc(OCC5(CN6CCOC[C@H]6C)CC5)nc4c2F)N2C[C@H]4CC[C@H](N4)[C@H]2[C@H](C)O3)c1C(F)(F)F [Compound 129, 2-Fluoro-5-((5S,5aS,6S,9R)-1-fluoro-5-methyl-12-((1-(((R)-3-methylmorpholino)methyl)cyclopropyl)methoxy)-5a,6,7,8,9,10-hexahydro-5H-4-oxa-3,10a,11,13,14-pentaaza-6,9-methanonaphtho[1,8-ab]heptalen-2-yl)-3-methyl-4-(trifluoromethyl)aniline] | 0.18 nM | 3.87 nM
12 | Cc1c(F)c(N)cc(-c2nc3c4c(nc(OCC56COC(CN5C)C6)nc4c2F)N2C[C@H]4CC[C@H](N4)[C@H]2[C@H](C)O3)c1C(F)(F)F [Compound 132, 2-Fluoro-5-((5S,5aS,6S,9R)-1-fluoro-5-methyl-12-((5-methyl-2-oxa-5-azabicyclo[2.2.1]heptan-4-yl)methoxy)-5a,6,7,8,9,10-hexahydro-5H-4-oxa-3,10a,11,13,14-pentaaza-6,9-methanonaphtho[1,8-ab]heptalen-2-yl)-3-methyl-4-(trifluoromethyl)aniline] | 1.47 nM | 291 nM
13 | Cc1c(F)c(N)cc(-c2nc3c4c(nc(OC[C@@H]5CO[C@H]6CC[N@]5C6)nc4c2F)N2C[C@H]4CC[C@H](N4)[C@H]2[C@H](C)O3)c1C(F)(F)F [Compound 135, 5-((5S,5aS,6S,9R)-12-(((1R,2S,5S)-4-Oxa-1-azabicyclo[3.2.1]octan-2-yl)methoxy)-1-fluoro-5-methyl-5a,6,7,8,9,10-hexahydro-5H-4-oxa-3,10a,11,13,14-pentaaza-6,9-methanonaphtho[1,8-ab]heptalen-2-yl)-2-fluoro-3-methyl-4-(trifluoromethyl)aniline] | 0.71 nM | 143 nM
14 | Cc1c(F)c(N)cc(-c2nc3c4c(nc(OC[C@@H]5[C@@H]6CCN5CCO6)nc4c2F)N2C[C@H]4CC[C@H](N4)[C@H]2[C@H](C)O3)c1C(F)(F)F [Compound 136, 5-((5S,5aS,6S,9R)-12-(((5S,8R)-4-Oxa-1-azabicyclo[3.2.1]octan-8-yl)methoxy)-1-fluoro-5-methyl-5a,6,7,8,9,10-hexahydro-5H-4-oxa-3,10a,11,13,14-pentaaza-6,9-methanonaphtho[1,8-ab]heptalen-2-yl)-2-fluoro-3-methyl-4-(trifluoromethyl)aniline] | 0.38 nM | 90.8 nM
15 | Cc1c(F)c(N)cc(-c2nc3c4c(nc(OCCCN5CCOCC5)nc4c2F)N2C[C@H]4CC[C@H](N4)[C@H]2[C@H](C)O3)c1C(F)(F)F [Compound 138, 2-Fluoro-5-((5S,5aS,6S,9R)-1-fluoro-5-methyl-12-(3-morpholinopropoxy)-5a,6,7,8,9,10-hexahydro-5H-4-oxa-3,10a,11,13,14-pentaaza-6,9-methanonaphtho[1,8-ab]heptalen-2-yl)-3-methyl-4-(trifluoromethyl)aniline] | 0.42 nM | 115 nM
16 | Cc1c(F)c(N)cc(-c2nc3c4c(nc(OCC56C[C@H](F)CN5C[C@@H](F)C6)nc4c2F)N2C[C@H]4CC[C@H](N4)[C@H]2[C@H](C)O3)c1C(F)(F)F [Compound 139, 5-((5S,5aS,6S,9R)-12-(((2S,6S)-2,6-Difluorotetrahydro-1H-pyrrolizin-7a(5H)-yl)methoxy)-1-fluoro-5-methyl-5a,6,7,8,9,10-hexahydro-5H-4-oxa-3,10a,11,13,14-pentaaza-6,9-methanonaphtho[1,8-ab]heptalen-2-yl)-2-fluoro-3-methyl-4-(trifluoromethyl)aniline] | 2.41 nM | 780 nM
